# Laboratory results published in ChEMBL document CHEMBL1201862, “PubChem BioAssay data set” (2004).
# Counter-ions that a name gives are not always drawn. Active and inactive are the calls of the source.
# Experiments:
# INS1 = test: beta cell apoptosis inhibitors, cytokine rescue, dose response, luminescence, retest (AID 449756); format: functional, cell-based; details: Rattus norvegicus;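 further: cell death triggered by IL-1 beta plus TNF-alpha plus IFN-gamma mixture; protective hits raise ATP signal compared with cytokine alone wells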
# [1] = RKO cell viability reduction, dose response, CellTiter-Glo luminescence (AID 1117322); format: functional
# [2] = target: G-protein coupled receptor 55 (Homo sapiens, UniProt Q9Y2T6); test: GPR55 antagonists blocking LPI-driven arrestin recruitment, primary screen, imaging, U2OS, beta-arrestin-GFP, LPI agonist (AID 2013); format: functional;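 further: antagonist potency measured as reduced agonist-driven arrestin aggregation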
# [3] = inhibitors of firefly luciferase expression or activity, dose response, H4 neuroglioma cells, luminescence (AID 1990); format: functional, cell-based
# [4] = CellTiter-Glo luminescent dose response of DLD-1 viability loss (AID 1117352); format: functional
# [5] = target: T1, Microphthalmia-associated transcription factor (Homo sapiens, UniProt O75030); test: TRPM1 promoter luciferase signal decrease, dose response, MITF inhibitor project, cell-based, SK-MEL-5, cherry-picked, set 3 (AID 493073); format: functional
# T1 sequence (O75030 whole entry): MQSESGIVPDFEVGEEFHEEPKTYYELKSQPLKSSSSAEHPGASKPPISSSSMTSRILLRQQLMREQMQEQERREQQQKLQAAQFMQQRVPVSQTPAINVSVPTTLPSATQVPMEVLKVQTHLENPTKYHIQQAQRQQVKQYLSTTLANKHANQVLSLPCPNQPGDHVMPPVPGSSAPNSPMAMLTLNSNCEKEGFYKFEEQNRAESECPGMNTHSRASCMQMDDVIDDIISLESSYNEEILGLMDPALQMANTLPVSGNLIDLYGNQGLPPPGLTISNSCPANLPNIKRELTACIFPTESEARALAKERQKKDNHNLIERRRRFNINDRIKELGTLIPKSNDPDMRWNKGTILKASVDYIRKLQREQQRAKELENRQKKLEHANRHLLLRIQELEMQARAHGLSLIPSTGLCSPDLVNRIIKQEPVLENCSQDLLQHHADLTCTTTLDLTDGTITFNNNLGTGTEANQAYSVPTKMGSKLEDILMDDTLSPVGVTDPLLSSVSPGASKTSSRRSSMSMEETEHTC
# [6] = Luminescence Cell-Based Dose Response HTS to Identify Inhibitors of 5'UTR Stem-Loop Driven Prion Protein mRNA Translation in H4 Neuroglioblastoma Cells. [Related pubchem assays: 1827 (Project Summary), 1813 (Primary HTS)]; format: functional
# [7] = target: T2, Ubiquitin-conjugating enzyme E2 N (Homo sapiens, UniProt P61088); format: functional;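 further: Dose-response confirmation in a TR-FRET assay detecting UBC13-driven polyubiquitin chain formation, inhibition measured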
# T2 sequence (P61088 whole entry): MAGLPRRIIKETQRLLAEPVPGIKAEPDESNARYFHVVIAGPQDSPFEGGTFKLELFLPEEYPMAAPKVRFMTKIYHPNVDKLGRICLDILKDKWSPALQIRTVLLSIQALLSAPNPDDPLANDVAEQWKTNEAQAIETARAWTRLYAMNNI
# [8] = inhibitors of intracellular T. cruzi replication, confirmation, NIH3T3 host cells, beta-gal luminescence (AID 2044); format: functional, cell-based;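 further: intracellular parasites grown in NIH/3T3 mouse fibroblasts as host cells; luminescent beta-galactosidase reporter signal from transgenic T. cruzi replicating inside host cells; inhibitors lower the luminescence signal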
# [9] = SNU-C1 cell viability reduction, dose response, CellTiter-Glo luminescence (AID 1117323); format: functional, cell-based
# [10] = cytotoxicity in KRAS-transformed pancreatic duct cells, primary screen, cell-based, fluorescence, HTS (AID 431); format: functional; details: Homo sapiens;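 further: cell line used: HPDE-C7K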
# Saccharomyces cerevisiae = test: NALP1 inhibitor project selectivity study, Caspase-1/ASC signal blockade IC50 in S. cerevisiae (AID 488863); format: functional, organism-based
# [11] = cytotoxicity toward Colo320 cells – cell-based, CellTiter-Glo luminescence, IC50, dose response (AID 1117334); format: functional; details: COLO 320
# [12] = HCT116 cell viability decrease, GSK3B pretreatment – CellTiter-Glo, IC50, dose response (AID 1117339); format: functional; details: HCT-116
# [13] = inhibitors of SNCA 5'UTR-driven reporter translation, confirmation, H4 neuroglioma cells, luminescence (AID 1988); format: functional, cell-based
# [14] = cytotoxicity toward HCT116 cells – cell-based, CellTiter-Glo luminescence, IC50, dose response (AID 1117332); format: functional; details: HCT-116
# [15] = cytotoxicity in HPDE-C7 cells, cell-based, fluorescence, HTS (AID 430); format: functional; details: Homo sapiens
# [16] = target: NACHT, LRR and PYD domains-containing protein 1 (Homo sapiens, UniProt Q9C000); test: NALP1 inhibitors in yeast, dose response, luminescent (AID 488860); format: functional
# [17] = cytotoxicity toward HT-29 cells – cell-based, CellTiter-Glo luminescence, IC50, dose response (AID 1117330); format: functional
# [18] = cytotoxicity toward NIH3T3 fibroblasts, dose response, counter-screen, cell-based, ATP luminescence, mouse fibroblasts (AID 2010); format: functional;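 further: cells exposed to compound for about 90 hours before reading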
# [19] = Concentration-dependent survival of SW480 colon cancer line, luminescence detection with CellTiter-Glo, half-maximal inhibitory concentration (AID 1117338); format: functional
# [20] = target: Cyclin-dependent kinase 5/CDK5 activator 1 (Homo sapiens, UniProt Q00535); test: CDK5/p35 kinase inhibitors, dose response, biochemical, cherry-picked samples, set 2 (AID 504545)
# [21] = target: T3, Neuropeptide Y receptor type 2 (Homo sapiens, UniProt P49146); test: Fluorescence-based cell-based high-throughput dose response assay for agonists of NPY-Y2. [Related pubchem assays: 1703 (Screening assay (CNGC inhibitors).), 1359 (Screening assay (NPY-Y2 potentiators or agonists).), 1304 (Screening assay (NPY-Y1 potentiators or agonists).), 1710 (Screening assay (NPY-Y2 agonists).), 1791 (Summary AID.)]; format: functional
# T3 sequence (P49146 whole entry): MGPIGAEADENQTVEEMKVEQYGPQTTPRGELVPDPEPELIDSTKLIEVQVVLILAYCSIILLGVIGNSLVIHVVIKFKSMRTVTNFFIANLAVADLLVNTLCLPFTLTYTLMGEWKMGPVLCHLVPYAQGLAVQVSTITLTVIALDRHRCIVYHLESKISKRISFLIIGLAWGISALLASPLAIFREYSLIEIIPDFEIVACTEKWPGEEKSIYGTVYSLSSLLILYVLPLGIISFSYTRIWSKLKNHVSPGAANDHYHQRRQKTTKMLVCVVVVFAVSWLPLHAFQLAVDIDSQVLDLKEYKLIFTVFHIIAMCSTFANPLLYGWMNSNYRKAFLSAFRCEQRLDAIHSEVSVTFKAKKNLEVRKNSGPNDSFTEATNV
# [22] = target: T4, Neuropeptide Y receptor type 1 (Homo sapiens, UniProt P25929); test: Fluorescence-based counterscreen for agonists of NPY-Y2: cell-based high-throughput dose response assay for agonists of NPY-Y1.; format: functional
# T4 sequence (P25929 whole entry): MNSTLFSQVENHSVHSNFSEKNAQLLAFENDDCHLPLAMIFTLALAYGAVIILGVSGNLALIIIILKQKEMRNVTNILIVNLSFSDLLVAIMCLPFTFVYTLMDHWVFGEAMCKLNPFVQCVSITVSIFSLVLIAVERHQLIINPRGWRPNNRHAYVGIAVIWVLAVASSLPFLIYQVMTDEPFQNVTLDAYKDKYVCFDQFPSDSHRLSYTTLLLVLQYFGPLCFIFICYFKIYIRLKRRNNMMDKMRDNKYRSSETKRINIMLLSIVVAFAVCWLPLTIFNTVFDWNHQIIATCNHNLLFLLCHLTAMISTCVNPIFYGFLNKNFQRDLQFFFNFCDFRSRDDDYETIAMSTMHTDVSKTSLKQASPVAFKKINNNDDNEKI
# Galanin receptor type 3 = target: T5, Galanin receptor type 3 (Homo sapiens, UniProt O60755); test: Fluorescence-based cell-based primary high throughput dose response assay to identify antagonists of the Galanin Receptor 3 (GalR3).; format: functional
# T5 sequence (O60755 whole entry): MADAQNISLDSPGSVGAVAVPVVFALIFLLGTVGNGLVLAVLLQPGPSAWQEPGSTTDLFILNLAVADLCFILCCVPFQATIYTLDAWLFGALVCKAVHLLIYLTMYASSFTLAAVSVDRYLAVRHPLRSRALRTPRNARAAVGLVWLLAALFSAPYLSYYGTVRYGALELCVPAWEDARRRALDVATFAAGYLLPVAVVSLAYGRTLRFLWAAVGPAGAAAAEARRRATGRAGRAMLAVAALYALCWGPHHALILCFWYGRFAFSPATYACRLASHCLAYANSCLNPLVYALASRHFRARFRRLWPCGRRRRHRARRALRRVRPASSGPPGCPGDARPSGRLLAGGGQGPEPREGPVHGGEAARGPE
# HEK293 = test: Fluorescence-based counterscreen for potentiators or agonists of NPY-Y2: cell-based high-throughput dose response assay to identify inhibitors of cyclic nucleotide gated ion channel (CNGC) activity. In this assay, the parental HEK293 cell line transfected with a cyclic-nucleotide gated ion channel (CNGC)-based cAMP sensor is used to measure inhibition of isoproterenol-induced CNGC activity by test compound.; format: functional; details: Homo sapiens;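 further: stimulus is 1 µM isoproterenol at EC100 plus PDE inhibitor Ro 20-1724 at 25 µM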
# cells = format: functional, cell-based; details: HEK-CNG
# [23] = target: T6, Delta-type opioid receptor (Homo sapiens, UniProt P41143); test: HTS Image-Based Screen for Agonists of the DOR Receptor. [Related pubchem assays (depositor defined):AID1777, AID1786, AID2133]; format: functional
# [24] = target: T7, Kappa-type opioid receptor (Homo sapiens, UniProt P41145); format: functional
# Mu-type opioid receptor = Mu-type opioid receptor (Homo sapiens, UniProt P35372); test: HTS Image-Based Screen for Agonists of the MOR Receptor. [Related pubchem assays (depositor defined):AID1777, AID1785, AID1786, AID2133]; format: functional;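 further: imaging of beta-arrestin GFP recruitment into spots after receptor activation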
# [25] = target: T7, Kappa-type opioid receptor; format: functional; remark: listed apart in the source
# [26] = target: Eukaryotic translation initiation factor 4E (Mus musculus, UniProt P63073); test: eIF4E–eIF4G protein interaction inhibitors, dose response, biochemical, TR-FRET (AID 855); format: functional;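 further: potency for disrupting eIF4E binding to eIF4GI seen as loss of FRET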
# [27] = target: T6, Delta-type opioid receptor; test: HTS Image-Based Screen for Antagonists of the DOR Receptor. [Related pubchem assays (depositor defined):AID1777, AID1785, AID1786, AID2133]; format: functional
# T7 sequence (P41145 whole entry): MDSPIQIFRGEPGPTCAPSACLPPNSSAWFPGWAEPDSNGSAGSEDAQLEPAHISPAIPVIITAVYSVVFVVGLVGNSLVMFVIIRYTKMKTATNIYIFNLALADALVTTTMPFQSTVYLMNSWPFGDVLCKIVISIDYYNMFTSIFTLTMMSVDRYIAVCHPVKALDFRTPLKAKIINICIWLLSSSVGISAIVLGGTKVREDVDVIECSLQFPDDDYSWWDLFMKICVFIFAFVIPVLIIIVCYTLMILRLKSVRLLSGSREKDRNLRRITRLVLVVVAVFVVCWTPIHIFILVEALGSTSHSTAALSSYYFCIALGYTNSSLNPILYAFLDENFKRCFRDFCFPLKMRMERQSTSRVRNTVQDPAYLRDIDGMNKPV
# T6 sequence (P41143 whole entry): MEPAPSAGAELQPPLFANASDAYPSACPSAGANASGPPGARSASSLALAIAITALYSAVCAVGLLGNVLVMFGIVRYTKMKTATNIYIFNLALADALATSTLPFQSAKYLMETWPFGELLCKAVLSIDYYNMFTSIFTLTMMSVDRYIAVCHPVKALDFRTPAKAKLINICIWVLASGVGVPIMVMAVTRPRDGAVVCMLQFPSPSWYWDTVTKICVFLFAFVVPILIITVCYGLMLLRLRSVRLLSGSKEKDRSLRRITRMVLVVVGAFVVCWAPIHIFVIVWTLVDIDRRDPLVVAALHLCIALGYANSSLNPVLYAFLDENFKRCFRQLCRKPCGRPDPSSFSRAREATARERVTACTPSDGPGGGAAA
# G-protein coupled receptor 55, sequence (Q9Y2T6 whole entry): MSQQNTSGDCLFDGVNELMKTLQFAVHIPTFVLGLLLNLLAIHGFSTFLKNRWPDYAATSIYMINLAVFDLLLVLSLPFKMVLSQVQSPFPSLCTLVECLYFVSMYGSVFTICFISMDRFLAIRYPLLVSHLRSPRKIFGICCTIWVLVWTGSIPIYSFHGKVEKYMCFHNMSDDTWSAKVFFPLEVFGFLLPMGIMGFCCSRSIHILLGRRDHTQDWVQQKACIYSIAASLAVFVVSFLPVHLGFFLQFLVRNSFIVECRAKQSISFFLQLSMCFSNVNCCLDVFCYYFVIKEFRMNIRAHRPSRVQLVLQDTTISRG
# NACHT, LRR and PYD domains-containing protein 1, sequence (Q9C000 1-1212 limits assumed): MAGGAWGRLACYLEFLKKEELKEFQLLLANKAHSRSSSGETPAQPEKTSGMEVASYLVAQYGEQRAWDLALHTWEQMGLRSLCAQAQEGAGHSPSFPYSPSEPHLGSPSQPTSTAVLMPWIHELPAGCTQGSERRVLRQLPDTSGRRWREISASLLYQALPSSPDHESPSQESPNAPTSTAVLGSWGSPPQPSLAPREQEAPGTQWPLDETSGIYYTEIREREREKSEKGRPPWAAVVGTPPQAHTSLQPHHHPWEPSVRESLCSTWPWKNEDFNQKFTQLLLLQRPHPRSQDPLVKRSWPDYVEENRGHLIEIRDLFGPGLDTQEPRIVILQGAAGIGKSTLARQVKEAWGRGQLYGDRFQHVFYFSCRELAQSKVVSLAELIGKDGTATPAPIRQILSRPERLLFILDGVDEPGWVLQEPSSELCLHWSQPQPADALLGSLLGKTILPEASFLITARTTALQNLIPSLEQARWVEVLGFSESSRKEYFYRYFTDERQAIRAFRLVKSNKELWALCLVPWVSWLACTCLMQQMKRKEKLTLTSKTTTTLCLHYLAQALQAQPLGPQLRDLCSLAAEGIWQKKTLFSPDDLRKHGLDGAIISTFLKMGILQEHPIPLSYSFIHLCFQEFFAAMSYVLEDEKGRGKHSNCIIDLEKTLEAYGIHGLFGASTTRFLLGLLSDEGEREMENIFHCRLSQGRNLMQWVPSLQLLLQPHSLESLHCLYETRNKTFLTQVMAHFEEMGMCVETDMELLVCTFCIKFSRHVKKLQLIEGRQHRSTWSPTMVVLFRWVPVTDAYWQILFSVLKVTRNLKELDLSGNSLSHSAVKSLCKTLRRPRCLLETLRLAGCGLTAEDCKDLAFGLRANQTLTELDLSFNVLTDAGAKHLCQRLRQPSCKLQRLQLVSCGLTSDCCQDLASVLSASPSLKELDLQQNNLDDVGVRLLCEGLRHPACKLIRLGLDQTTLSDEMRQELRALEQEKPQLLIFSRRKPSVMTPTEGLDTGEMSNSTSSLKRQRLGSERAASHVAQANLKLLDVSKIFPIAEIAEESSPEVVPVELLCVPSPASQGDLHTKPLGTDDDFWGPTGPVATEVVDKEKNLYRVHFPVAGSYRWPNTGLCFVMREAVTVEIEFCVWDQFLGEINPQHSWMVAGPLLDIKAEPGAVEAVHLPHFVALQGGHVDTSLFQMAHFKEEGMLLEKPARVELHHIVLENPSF
# NACHT, LRR and PYD domains-containing protein 1, sequence (Q9C000 1213-1473 limits assumed): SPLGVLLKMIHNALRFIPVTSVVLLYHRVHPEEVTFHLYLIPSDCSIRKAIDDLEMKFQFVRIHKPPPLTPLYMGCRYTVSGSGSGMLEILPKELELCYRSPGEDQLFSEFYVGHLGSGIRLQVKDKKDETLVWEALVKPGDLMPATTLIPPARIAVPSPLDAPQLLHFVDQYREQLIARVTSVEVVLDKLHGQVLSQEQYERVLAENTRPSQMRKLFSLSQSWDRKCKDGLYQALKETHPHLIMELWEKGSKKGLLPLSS
# Mu-type opioid receptor, sequence (P35372 whole entry): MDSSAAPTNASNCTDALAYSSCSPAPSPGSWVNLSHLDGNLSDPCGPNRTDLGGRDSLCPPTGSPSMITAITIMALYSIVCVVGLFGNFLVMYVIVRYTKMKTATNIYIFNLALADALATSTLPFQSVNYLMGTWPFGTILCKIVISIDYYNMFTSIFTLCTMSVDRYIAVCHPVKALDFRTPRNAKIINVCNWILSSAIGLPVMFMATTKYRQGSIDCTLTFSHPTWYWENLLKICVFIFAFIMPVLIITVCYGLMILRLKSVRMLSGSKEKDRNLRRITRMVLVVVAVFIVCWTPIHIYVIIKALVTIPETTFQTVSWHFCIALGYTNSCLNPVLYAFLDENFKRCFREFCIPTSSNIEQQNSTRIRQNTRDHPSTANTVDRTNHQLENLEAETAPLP
# Cyclin-dependent kinase 5/CDK5 activator 1, sequence (Q00535 whole entry): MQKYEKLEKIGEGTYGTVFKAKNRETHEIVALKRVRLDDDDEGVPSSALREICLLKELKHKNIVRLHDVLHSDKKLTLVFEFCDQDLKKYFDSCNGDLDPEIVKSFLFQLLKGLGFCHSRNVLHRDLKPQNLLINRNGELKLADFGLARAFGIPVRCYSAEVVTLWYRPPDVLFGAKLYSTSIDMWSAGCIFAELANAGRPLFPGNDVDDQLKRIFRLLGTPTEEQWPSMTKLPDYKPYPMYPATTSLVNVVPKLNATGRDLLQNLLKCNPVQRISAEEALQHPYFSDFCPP
# Cyclin-dependent kinase 5/CDK5 activator 1, sequence (Q15078 whole entry, further chain): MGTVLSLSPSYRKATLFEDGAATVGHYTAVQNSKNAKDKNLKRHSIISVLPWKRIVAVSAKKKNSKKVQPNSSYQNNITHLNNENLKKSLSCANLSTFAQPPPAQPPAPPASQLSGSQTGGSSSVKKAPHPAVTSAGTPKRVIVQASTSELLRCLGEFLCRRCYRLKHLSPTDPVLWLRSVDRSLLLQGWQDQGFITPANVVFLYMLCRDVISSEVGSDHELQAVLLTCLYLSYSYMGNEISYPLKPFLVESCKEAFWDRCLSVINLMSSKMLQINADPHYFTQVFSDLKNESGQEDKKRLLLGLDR
# Eukaryotic translation initiation factor 4E, sequence (P63073 whole entry): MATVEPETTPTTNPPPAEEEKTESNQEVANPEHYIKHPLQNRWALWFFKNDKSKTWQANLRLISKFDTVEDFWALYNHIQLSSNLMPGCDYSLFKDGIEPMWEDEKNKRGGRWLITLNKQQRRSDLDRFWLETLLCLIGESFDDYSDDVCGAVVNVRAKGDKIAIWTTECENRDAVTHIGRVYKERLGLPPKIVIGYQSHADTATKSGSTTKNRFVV
compound,measurement,setting,value
C1CCC(C(CC2CCCCN2)C2CCCCC2)CC1 (stereo not drawn) [PERHEXILINE MALEATE],AC50,INS1,6.42 µM (active)
same,IC50,[1],7.85 µM (inactive)
same,IC50,[2],3.19 µM (active)
same,EC50,[3],> 120 µM (not active)
same,IC50,[4],> 20 µM (inactive)
same,AC50,[5],18.8 µM (active)
same,EC50,[6],> 120 µM (not active)
same,IC50,[7],> 20 µM (inactive)
same,EC50,[8],3.13 µM (active)
same,IC50,[9],2.48 µM (active)
same,EC50,[10],10.8 µM (active)
same,IC50,Saccharomyces cerevisiae,15.9 µM (active)
same,IC50,[11],8.86 µM (inactive)
same,IC50,[12],7.42 µM (inactive)
same,EC50,[13],8.95 µM (active)
same,IC50,[14],> 20 µM (inactive)
same,EC50,[15],11.7 µM (active)
same,IC50,[16],12.9 µM (active)
same,IC50,[17],6.87 µM (inactive)
same,EC50,[18],14.2 µM (active)
same,IC50,[19],5.76 µM (inactive)
CCCc1cc(-c2[nH]ncc2-c2ccc(C(=O)OCC)o2)c(O)cc1O,AC50,[20],10 µM (active)
same,EC50,[21],> 35.4 µM (not active)
same,EC50,[22],18.5 µM (not active)
same,IC50,Galanin receptor type 3,12.8 µM (inactive)
same,EC50,HEK293,> 35.4 µM (not active)
same,EC50,cells,> 29.9 µM (inactive)
Cc1ccc(C)c(N2CCN(C(=O)C(Cc3ccccc3)n3cccc3)CC2)c1 (stereo not drawn),EC50,[23],> 32 µM (inactive)
same,EC50,[24],4.27 µM
same,EC50,Mu-type opioid receptor,> 32 µM (inactive)
same,EC50,[25],10.5 µM
same,IC50,[26],> 64 µM (inactive)
same,IC50,[27],> 32 µM (inactive)
